“And” between values parts separate entries of the source, which are not always exact repeats. Equal values may be shown once.
What was measured:
cytochrome C = experiment: Cytochrome C ELISA in SR human cell line; assay type: cell-based
Protocol: The 1,2,3-triazole/biquinolinone derivative 6c was evaluated for cytochrome C against the SR human cell line and the results are listed in Table 4.
Cells were collected from American Type Culture Collection to be grown in […] containing 10% fetal bovine serum at 37 °C, stimulated with the compounds to be tested for cytochrome C using Cytochrome C Human ELISA Kit (ab119521—Cytochrome C Human ELISA Kit, Vaccera institute, Egypt) (See Supplementary Materials). […]
• Equilibrate all materials and prepared reagents to room temperature prior to use.
• It is recommended to assay all standards, controls and samples in duplicate.
13.1. Prepare all reagents, working standards, and samples as directed in the previous sections.
Determine the number of microplate strips required to test the desired number of samples plus […]
appropriate number of wells needed for running blanks and standards. Predilute samples before […]
starting the test procedure with one-part sample to one-part 1X Assay Buffer.
13.2. Wash the microplate twice with approximately 400 μL 1X Wash Buffer per well with […]
thorough aspiration of microplate contents between washes. Allow the 1X Wash Buffer to remain in […]
Note: The color development on the plate should be monitored and the substrate reaction stopped […]
the stop solution when the highest standard has developed a dark blue color. Alternatively, the color development can be monitored by the ELISA reader at 620 nm. […]
Note: It is important that the Stop Solution is mixed quickly and uniformly throughout the microplate to completely inactivate the enzyme. Results must be read immediately after the Stop Solution is added or within one hour if the microplate strips are stored at 2 - 8°C in the dark.
13.15. Read absorbance of each microplate on a spectrophotometer using 450 nm as the primary wavelength (optionally 620 nm as the reference wavelength; 610 nm to 650 nm is acceptable).
Blank the plate reader according to the manufacturer's instructions by using the blank wells.
Determine the absorbance of both the samples and the standards. […]

testis of I/R rats = experiment: Testicular histopathology (H&E, Cosentino's score, Johnson's scoring) in I/R rats; assay type: in vivo; conditions: for Histopathological/spermatogenesis scoring difference compared to the reference (NAC): Cosentino's score and Johnson's scoring, p-value < 0.005; for Histopathological finding in testis sections: H&E sections
From the text: Also, it decreased spermatogenesis when compared to the control group by using Johnson’s scoring system (Figure 9B).
The seminiferous tubules were seen lined with stratified testicular epithelium rested on basement membranes. […] Ruptured tubules and distorted Leydig cells and sloughed cells could be also observed (Figure 10B). […] Distorted Leydig cells with dilated blood vessels (BV) were frequently seen among the sections (Figure 12). […] Dilated blood vessels and the presence of amyloid substance were also found (Figure 13).
Multiple testicular specimens were stained by hematoxylin-eosin (ab245880, Abcam, Cambridge, MA, USA) using Cosentino’s score for semi-quantitation of pathological changes in different seminiferous tubules. By using Johnson’s scoring system, the effect of ischemia on the spermatogenesis can be studied (See Supporting Materials).
Semi-quantitative data were measured and counted per section in ten randomly selected non-overlapping fields using power × 400 magnifications of the sections from each rat. The results were carried out using the Image J program analysis software (Image J 1.48V, Maryland, MD, USA; Wayne Rasb and National Institutes of Health). […]
4. Histopathological Investigation
Multiple testicular specimens were fixed in Bouin's solution for about 24 hour, dehydrated in an alcohol grades, cleaned with xylene and then embedded in paraffin wax. Tissue sections (about six μm) were stained by haematoxylin–eosin (H&E) and were studied by an experienced histologist. In the current study, we used Cosentino's score for semi-quantitation of pathological changes on different seminiferous tubules in the whole groups by grading these tubules between one and four, and the mean scores were taken by dividing the totality to the whole number of testicular tubules .
By using Johnson’s scoring system, the effect of ischemia on the spermatogenesis can be studied.
The grades were counted one to ten, and the total scores were taken by dividing the totality to the whole number of testicular tubules.
4.2.Histopathological grading score (Cosentino's score)
I Normal testicular structure
II less orderly germinal cells with closely packed seminiferous tubules III Anarchic sloughed germinal cells, with less pyknotic nuclei size and less distinct seminiferous […]
IV Closely packed seminiferous tubules and coagulative necrosis
Note: Semi-quantitation of pathological changes on different seminiferous tubules in the whole groups by grading the tubules between 1 and 4, and the mean scores were obtained by dividing the totality to the whole number of testicular tubules.
4.3.Spermatogenesis grading; Score Morphological picture
10 Normal spermatogenesis
9 less defect in spermatogenesis with multiple late spermatids, little disorganized epithelium 8 Less than five spermatozoa/tubule, less late spermatids
7 Absence of spermatozoa, absent late spermatids, more early spermatids 6 No spermatozoa, absence of late spermatids with little early spermatids 5 No spermatozoa or spermatids, more spermatocytes
4 No spermatozoa or spermatids, fewer spermatocytes
2 No germinal cells, only Sertoli cells
1 No seminiferous epithelium
Note: By using Johnsen's scoring system, the effect of ischaemia on the spermatogenesis can be detected. The grades were from 1 to 10, and the total scores were taken by dividing to the whole number of testicular tubules.

Row | Compound | Cyt C Conc (cytochrome C) | Histopathological/spermatogenesis scoring difference compared to the reference (NAC) (testis of I/R rats) | Histopathological finding in testis sections (testis of I/R rats) | Cyt C Fold Change (cytochrome C; down-expression relative to control)
1 | COc1ccc2[nH]c(=O)cc(-n3cc(COc4cc(=O)[nH]c5ccccc45)nn3)c2c1 [6c, 6-Methoxy-4-(4-(((2-oxo-1,2-dihydroquinolin-4-yl)oxy)methyl)-1H-1,2,3-triazol-1-yl)-quinolin-2(1H)-one] | 0.28 ng/mL and 0.28 ± 0.011 ng/mL | – | – | –
2 | Cn1c(=O)cc(-n2cc(COc3cc(=O)[nH]c4ccccc34)nn2)c2ccccc21 [6d, 1-Methyl-4-(4-(((2-oxo-1,2-dihydroquinolin-4-yl)oxy)methyl)-1H-1,2,3-triazol-1-yl)quinolin-2(1H)-one] | – | highly significant histopathological difference | ruptured seminiferous tubules with distorted Leydig cells | –
3 | Cc1ccc2[nH]c(=O)cc(OCc3cn(-c4cc(=O)[nH]c5ccccc45)nn3)c2c1 [6e, 6-Methyl-4-((1-(2-oxo-1,2-dihydroquinolin-4-yl)-1H-1,2,3-triazol-4-yl)methoxy)quinolin-2(1H)-one] | – | weak significant differences | dilated seminiferous tubules | –
4 | Cc1ccc2[nH]c(=O)cc(OCc3cn(-c4cc(=O)[nH]c5ccc(C)cc45)nn3)c2c1 [6f, 6-Methyl-4-((1-(6-methyl-2-oxo-1,2-dihydroquinolin-4-yl)-1H-1,2,3-triazol-4-yl)meth-oxy)quinolin-2(1H)-one] | – | highly significant histopathological difference | ruptured seminiferous tubules with distorted Leydig cells | –
5 | COc1ccc2[nH]c(=O)cc(OCc3cn(-c4cc(=O)[nH]c5ccccc45)nn3)c2c1 [6g, 6-Methoxy-4-((1-(2-oxo-1,2-dihydroquinolin-4-yl)-1H-1,2,3-triazol-4-yl)methoxy)quinolin-2-(1H)-one] | – | weak significant differences | dilated seminiferous tubules | –
6 | CC(=O)N[C@@H](CS)C(=O)O [NAC, N-acetylcysteine, reference compound] | 0.24 ± 0.019 ng/mL | – | more or less normal seminiferous tubules and Leydig cells except some areas displayed distorted tubules and widening of inter-tubular spaces | 4.13 fold
